Series [1] concerns Cheumatopsyche. As to the kind of experiment: Insecticidal activity against first-instar larvae of Cheumatopsyche brevilineata after 48 hr. The class given is functional, organism-based.
Series [2] relates to Daphnia magna. The series is described as follows: Insecticidal activity against Daphnia magna after 48 hr. Type of series: functional, organism-based.
Series [3] is described as follows: Octanol-water partition coefficient, log KOW of the compound.
Series [4] deals with Daphnia pulex. As to the kind of experiment: Insecticidal activity against Daphnia pulex after 48 hr. The class given is functional, organism-based.

The source of these data is ChEMBL document CHEMBL3046240, “A useful new insecticide bioassay using first-instar larvae of a net-spinning caddisfly, Cheumatopsyche brevilineata (Trichoptera: Hydropsychidae)” (J Pestic Sci, 2009).

SMILES strings stand for the structures. Values after ≈ are worked out from the molar mass of the structure shown.

Broadly, the EC50 is the midpoint of the concentration-response curve. A lower EC50 goes with higher potency in that assay. In general, logP refers to the decadic logarithm of the partition coefficient of the neutral form, usually between octanol and water. As usually defined, the LC50 is the concentration lethal to half of the exposed cells or organisms. The low end stands for a more lethal substance, the high end for a less lethal substance.

Regarding `CCc1ccc(C(=O)NN(C(=O)c2cc(C)cc(C)c2)C(C)(C)C)cc1` [TEBUFENOZIDE], the EC50 in series [1] is over 830 ng/mL; in series [2] it was 3800 ng/mL (≈ 10.8 µM).

In series [3], `CCC(C)c1ccccc1OC(=O)NC` (stereo unspecified) [FENOBUCARB] gave a logP of 2.79. Also, the concentration for a half-maximal effect (EC50) in series [1] came to 9.48 ng/mL (≈ 0.0457 µM); in series [4], 10.3 ng/mL (≈ 0.0497 µM).

In the case of `CCOC(=O)C(SP(=S)(OC)OC)c1ccccc1` (stereo unspecified) [PHENTHOATE], the EC50 in series [1] is 0.88 ng/mL (≈ 0.00275 µM); in series [2], 0.34 ng/mL (≈ 0.00106 µM).

In the case of `CNC(=O)Oc1cc(C)cc(C)c1`, the log partition coefficient (logP) in series [3] is 2.3. For the same molecule, the results for the 50% effective concentration (EC50) in series [1] and in series [2] were 58.9 ng/mL (≈ 0.329 µM) and 30 ng/mL (≈ 0.167 µM), respectively.

`COP(=O)(OC)C(O)C(Cl)(Cl)Cl` (stereo unspecified) [TRICHLORFON]: the EC50 in series [1] is 2.02 ng/mL (≈ 0.00785 µM); in series [2] it was 0.36 ng/mL (≈ 0.0014 µM).

For `CNC(=O)Oc1cccc2ccccc12` [CARBARIL], the lipophilicity (logP) in series [3] was 1.85. Further, the EC50 in series [1] is 21.4 ng/mL (≈ 0.106 µM); in series [2] it was 5.6 ng/mL (≈ 0.0278 µM).

For `CN/C(=N\[N+](=O)[O-])NCc1cnc(Cl)s1` [CLOTHIANIDINE], the EC50 is 4.44 ng/mL (≈ 0.0178 µM) in series [1] and over 119000 ng/mL in series [2].

Regarding `N#C/N=C1\SCCN1Cc1ccc(Cl)nc1` [THIACLOPRID], the EC50 in series [1] turned out to be 5.27 ng/mL (≈ 0.0209 µM); in series [2], 22520 ng/mL (≈ 89.1 µM).

Molecule `CN(C)C1CSSSC1.O=C(O)C(=O)O` [THIOCYCLAM HYDROGEN OXALATE] gave a lipophilicity (logP) in series [3] of -0.07. Further, the EC50 in series [1] came to 5.76 ng/mL; in series [4], 2010 ng/mL.

Turning to `O=[N+]([O-])/N=C1\NCCN1Cc1ccc(Cl)nc1` [IMIDACLOPRID], the concentration giving a half-maximal response (EC50) in series [1] stood at 4.22 ng/mL (≈ 0.0165 µM); in series [2] it was 85200 ng/mL (≈ 333 µM).

Consider `CCCCN(CCCC)SN(C)C(=O)Oc1cccc2c1OC(C)(C)C2` [CARBOSULFAN], for which the logP in series [3] stood at 5.4. Further, the concentration giving a half-maximal response (EC50) in series [1] stood at 1.49 ng/mL (≈ 0.00392 µM); in series [4], 1.03 ng/mL (≈ 0.00271 µM).

Consider `COP(=S)(OC)Oc1ccc([N+](=O)[O-])c(C)c1` [FENITROTHION], for which the lipophilicity (logP) in series [3] was determined as 3.43. The EC50 in series [1] turned out to be 7.78 ng/mL (≈ 0.0281 µM); in series [2], 11 ng/mL (≈ 0.0397 µM).

In the case of `CC1(C)C(C=C(Cl)Cl)C1C(=O)OCc1cccc(Oc2ccccc2)c1` (stereo unspecified) [PERMETHRIN], the “log KOW” value in series [3] is recorded as 6.1. For the same molecule, the 50% effective concentration (EC50) in series [1] stood at 0.205 ng/mL (≈ 0.000524 µM); in series [2], 0.6 ng/mL (≈ 0.00153 µM).

On to `CCOC(=O)CCN(SN(C)C(=O)Oc1cccc2c1OC(C)(C)C2)C(C)C` [BENFURACARB], for which, in series [3], the lipophilicity (logP) was 4.22. Further, the EC50 in series [1] is 6.66 ng/mL (≈ 0.0162 µM); in series [2] it was 9.9 ng/mL (≈ 0.0241 µM).

As for `CN(C)C(CSC(N)=O)CSC(N)=O.Cl` [CARTAP HYDROCHLORIDE], the EC50 was determined as 3.7 ng/mL in series [1] and 65 ng/mL in series [2].

`CC1=NNC(=O)N(/N=C/c2cccnc2)C1` [PYMETROZINE]: the values for the EC50 in series [1] and in series [2] were 112000 ng/mL (≈ 516 µM) and 87000 ng/mL (≈ 400 µM), respectively.

For `COP(=O)(OC)OC=C(Cl)Cl` [DICHLORVOS], the log partition coefficient (logP) in series [3] amounted to 1.9. Also, the figures for the EC50 in series [1] and in series [2] were 1.17 ng/mL (≈ 0.00529 µM) and 0.2 ng/mL (≈ 0.000905 µM), respectively.

Regarding `CCOc1ccc(C(C)(C)COCc2cccc(Oc3ccccc3)c2)cc1` [ETOFENPROX], the EC50 in series [1] came out at 0.116 ng/mL (≈ 0.000308 µM); in series [2] it was 0.57 ng/mL (≈ 0.00151 µM).

In series [3], `C/C(=N\C#N)N(C)Cc1ccc(Cl)nc1` displayed a logP of 0.8. The 50% effective concentration (EC50) turned out to be 3.35 ng/mL (≈ 0.015 µM) in series [1] and 50000 ng/mL (≈ 225 µM) in series [2].

In series [3], `CS/C(C)=N\OC(=O)N(C)SN(C)C(=O)O/N=C(\C)SC` [THIODICARB] displayed a logP of 1.62. Further, the 50% effective concentration (EC50) in series [1] was 145 ng/mL (≈ 0.409 µM); in series [2] it was 27 ng/mL (≈ 0.0762 µM).

For `CCOP(=S)(OCC)Oc1cc(C)nc(C(C)C)n1` [DIMPYLATE], the EC50 is 1.77 ng/mL (≈ 0.00582 µM) in series [1] and 0.87 ng/mL (≈ 0.00286 µM) in series [2].

In series [3], `CN(C)C(CSS(=O)(=O)c1ccccc1)CSS(=O)(=O)c1ccccc1` [BENSULTAP] yielded a lipophilicity (logP) of 2.28. In series [1], this molecule registered an EC50 of 148 ng/mL (≈ 0.343 µM). The molecule also gave a 50% lethal concentration (LC50) in series [2] (Daphnia magna, 48 h) of 200 ng/mL (≈ 0.463 µM).

In series [3], `CNC(=O)ON=C(C)SC` [METHOMYL] came in with a log partition coefficient (logP) of 0.093. Moreover, the concentration giving a half-maximal response (EC50) in series [1] is 68.1 ng/mL (≈ 0.42 µM); in series [2] it was 8.8 ng/mL (≈ 0.0542 µM).

As for `N#Cc1nn(-c2c(Cl)cc(C(F)(F)F)cc2Cl)c(N)c1[S+]([O-])C(F)(F)F` (stereo unspecified) [FIPRONIL], the EC50 is 0.153 ng/mL (≈ 0.00035 µM) in series [1] and 190 ng/mL (≈ 0.435 µM) in series [2].

As to `CCN(Cc1ccc(Cl)nc1)/C(=C/[N+](=O)[O-])NC`, the EC50 was 45 ng/mL (≈ 0.166 µM) in series [1] and over 100000 ng/mL in series [2].

On to `CCOC(=O)CC(SP(=S)(OC)OC)C(=O)OCC` (stereo unspecified) [MALATHION], for which the log partition coefficient (logP) in series [3] was found to be 2.75. Further, the values for the EC50 in series [1] and in series [2] were 1.81 ng/mL (≈ 0.00548 µM) and 1 ng/mL (≈ 0.00303 µM), respectively.

Regarding `CN/C(=N/CC1CCOC1)N[N+](=O)[O-]` (stereo unspecified) [DINOTEFURAN], the “log KOW” value in series [3] is given as -0.644. Besides, the values for the half-maximal effective concentration (EC50) in series [1] and in series [2] were 10.4 ng/mL (≈ 0.0514 µM) and over 968300 ng/mL, respectively.

For `CCOc1ccc([Si](C)(C)CCCc2ccc(F)c(Oc3ccccc3)c2)cc1` [SILAFLUOFEN], the EC50 was determined as 0.6 ng/mL (≈ 0.00147 µM) in series [1] and 1.2 ng/mL (≈ 0.00294 µM) in series [2].

On to `CC(C)N1C(=O)N(c2ccccc2)CS/C1=N\C(C)(C)C` [BUPROFEZIN], for which the logP in series [3] turned out to be 4.3. Further, the EC50 was 181 ng/mL (≈ 0.593 µM) in series [1] and over 420 ng/mL in series [2].

Take `COP(=S)(OC)Oc1ccc(SC)c(C)c1` [FENTHION]: the EC50 in series [1] was determined as 2.14 ng/mL (≈ 0.00769 µM); in series [2], 5.2 ng/mL (≈ 0.0187 µM).
